Data published in patent publication EP1510220B1 (priority 1993, dated 1994).

What was measured:
[1] = test system: Vascular smooth muscle cells (BO54); experiment: Scratch-migration assay with morphological toxicity grading; format: cell-based, baboon; parameters: key: - = no toxicity; +1 = minimal; +2 = mild; +3 = moderate; +4 = marked toxicity
Protocol: Scratch assays to determine the extent of smooth muscle cell migration inhibition by cytochalasin B were performed in accordance with the following protocol:
Vascular smooth muscle cells (BO54) were derived from explants of baboon aortic smooth muscle, as described in Example 1. The cells were grown in flat bottom, six well tissue culture plates, which hold about 5 ml of medium. The vascular smooth muscle cells were plated at 200,000 cells/well and placed at 37°C in a humidified 5% CO2 incubator for 18 hours. The wells were then scratched with a sterile portion of a single edge razor blade that was held by clamp or pliers and was brought aseptically into contact with the bottom of the well at a 90° angle. The cells from a small area along the scratch were removed by a sterile cotton tipped applicator while the blade was in contact with the bottom of the well. After incubation, the presence of cells in the "scratched" area is indicative of cell migration across the scratch line.
Briefly, a stock solution of cytochalasin B (Sigma Chemical Co.) in dimethyl sulfoxide (DMSO) at 1 mg/ml was prepared. Test dilutions of cytochalasin B or control medium were added. Each experiment included two sets of plates: • A set: Test agent exposure for 1, 3, 6, 8 and 10 days only; and • B set: Test agent exposure for 1, 3, 6, 8 and 10 days, followed by a seven day recovery time with control medium. Both sets of plates were fixed (10% formalin in PBS) and stained (0.02% crystal violet) at the end of the timed exposures. Test concentrations for cytochalasin B were 1, 0.1 and 0.01 µg/ml, and a negative medium control was included. Fresh medium and drug were supplied 3 times per week.
In this Table, "M" indicates Migration Grade, wherein - = no migration; +1 = minimal; +2 = mild; +3 = moderate; and +4 = marked (maximum density; limit of cell contact inhibition) migration of vascular smooth muscle cells into the cleared area adjacent to the scratch. In this Table, "T" denotes a morphological Toxicity Grade, wherein - = no toxicity; +1 = minimal; +2 = mild; +3 = moderate; and +4 = marked toxicity. The migration results are expressed as "Grade in the Cleared Area of the Well / Grade in an Undisturbed Region of the Well." The toxicity values represent a grade for all cells in each well.

TGF-beta [2] = experiment: Sandwich ELISA for total latent plus active TGF-beta, rat vascular smooth muscle cell conditioned medium; format: cell-based
Protocol: (§1) The total latent and active TGF-beta present was determined by a sandwich ELISA. Maxisorb 96-well ELISA plates (available from Gibco) were coated with neutralizing antiserum against TGF-beta (BDA19; available from R & D Systems) at 2 micrograms/cm^2 in phosphate buffered saline (PBS) overnight at room temperature. The plates were washed between each step with tris-buffered saline containing 0.1% Triton X-100 (available from Sigma Chemical Company). The plates were incubated with samples for 2 hours, with a second antibody to TGF-beta (BDA5; available from R & D Systems) at 0.1 micrograms/ml for 2 hours, anti-rabbit IgG peroxidase conjugated to antibody (available from Sigma Chemical Co.), made up according to manufacturer's instructions, for 15 minutes. Absorbances at 492 nm were converted into quantities of TGF-beta protein using a standard curve. Both conditioned media and standards were assayed in the presence of 10% FCS in DMEM. This assay was linear for TGF-beta concentrations in the range from 0.1 ng/ml to 20 ng/ml in the presence of 10% FCS in DMEM.

TGF-beta [3] = experiment: ELISA for TGF-beta in medium conditioned on human EX cultures; format: cell-based; settings: 5 µM
Protocol: as §1
Cell counting, DNA synthesis assays and assays for total and active TGF-beta were performed as described in Example 7.

Rat aortic SMCs = experiment: Wound migration assay on confluent SMC; format: cell-based
Protocol: Cell culture. Rat aortic SMCs from 12-20 week old Wistar male rats were prepared by enzyme dispersion, as described in Example 7. The cultured cells were confirmed as >99% SMC by staining for SM-MHC, and proliferated with a cell cycle time of 36 h. Cells were passaged as described in Example 7, and were used either in primary culture or between passages 6-12.
Migration. Migration was assayed using SMC grown to confluence on glass coverslips. A defined injury is performed on the confluent layer of cells, which are allowed to recover in D-MEM + 10% FCS for 24 h. Bromodeoxyuridine (10 µM) is added between 18-24 h, to label proliferating cells. Cells migrating past the boundary of the wound edge at 24 h are detected by propidium iodide (PI) staining of the cell nuclei (500 µM PI in PBS + 0.5% NP-40 for 30 min at room temperature). Cells that synthesized DNA were detected by antibody staining for bromodeoxyuridine using fluorescein-conjugated anti-bromodeoxyuridine antibodies. Migrating and proliferating cells in each field of view were simultaneously counted by image analysis of the rhodamine emission from PI and fluorescein emission from bromodeoxyuridine.

cytochalasin B
morphological Toxicity Grade ([1]; 7-day Recovery Post Exposure, 0.01 µg/mL, Day 1): -
morphological Toxicity Grade ([1]; 7-day Recovery Post Exposure, 0.01 µg/mL, Day 3): -
morphological Toxicity Grade ([1]; 7-day Recovery Post Exposure, 0.01 µg/mL, Day 6): -
morphological Toxicity Grade ([1]; 7-day Recovery Post Exposure, 0.01 µg/mL, Day 8): -
morphological Toxicity Grade ([1]; 7-day Recovery Post Exposure, 0.01 µg/mL, Day 10): -
morphological Toxicity Grade ([1]; 7-day Recovery Post Exposure, 0.1 µg/mL, Day 1): -
morphological Toxicity Grade ([1]; 7-day Recovery Post Exposure, 0.1 µg/mL, Day 3): -
morphological Toxicity Grade ([1]; 7-day Recovery Post Exposure, 0.1 µg/mL, Day 6): -
morphological Toxicity Grade ([1]; 7-day Recovery Post Exposure, 0.1 µg/mL, Day 8): -
morphological Toxicity Grade ([1]; 7-day Recovery Post Exposure, 0.1 µg/mL, Day 10): -
morphological Toxicity Grade ([1]; Continuous Exposure, 0.01 µg/mL, Day 1): -
morphological Toxicity Grade ([1]; Continuous Exposure, 0.01 µg/mL, Day 3): -
morphological Toxicity Grade ([1]; Continuous Exposure, 0.01 µg/mL, Day 6): -
morphological Toxicity Grade ([1]; Continuous Exposure, 0.01 µg/mL, Day 8): -
morphological Toxicity Grade ([1]; Continuous Exposure, 0.01 µg/mL, Day 10): -
morphological Toxicity Grade ([1]; Continuous Exposure, 0.1 µg/mL, Day 1): -
morphological Toxicity Grade ([1]; Continuous Exposure, 1.0 µg/mL, Day 6): +4
morphological Toxicity Grade ([1]; Continuous Exposure, 1.0 µg/mL, Day 8): +4
morphological Toxicity Grade ([1]; Continuous Exposure, 1.0 µg/mL, Day 10): +4

CC/C(=C(\c1ccccc1)c1ccc(OCCN(C)C)cc1)c1ccccc1 [tamoxifen, trans-2-[4-(1,2-diphenyl-1-butenyl)phenoxy]-N,N-dimethylethylamine]
proportion of the TGF-beta present in active form (TGF-beta [2]; 50 micromolar, 96 hours, vehicle < 5%): approximately 35%
fold induction at 50 µM (TGF-beta [2]; Rattus norvegicus, 96 h, read-out: increase of total TGF-beta protein present): ~4
proportion of total TGF-beta protein that was activated (TGF-beta [3]): 55±5%
total TGF-beta protein in conditioned medium (TGF-beta [3]): 6.0 ± 2.0 ng/mL
inhibition at 10 µM (Rat aortic SMCs; Rattus norvegicus, added at the time of wounding, TGF-beta-1 10 ng/ml, tamoxifen 10 µM, 24 h, read-out: less cells crossed the boundary of the wound): ~90%
entry into DNA synthesis stimulated upon wounding (Rat aortic SMCs; bromodeoxyuridine labeling): did not significantly inhibit
